Measured values taken from US4397868A, “Method of treating atherosclerosis with trisubstituted ureas” (American Cyanamid Company, priority 1982, dated 1983).

Tested on: fatty acyl CoA:cholesterol acyl transferase (ACAT)
Test: In vitro inhibition of fatty acyl CoA:cholesterol acyl transferase (ACAT), rat adrenal microsomal supernatant
Type: biochemical
Details: test compound final concentration 5.2 μg./ml., 14C-oleoyl CoA, 37° C., 10 minutes
Procedure: A representative compound of the present invention was assayed for a biological activity related to potential use as an antiatherosclerotic agent. The compound was tested in vitro for its ability to inhibit the enzyme fatty acyl CoA:cholesterol acyl transferase (ACAT).
A representative compound was tested for its ability to inhibit ACAT according to the following procedure:
Rat adrenals were homogenized in 0.2 M monobasic potassium phosphate buffer, pH 7.4, and centrifuged at 1000 times gravity for 15 minutes at 5° C. The supernatant, containing the microsomal fraction, served as the source of the cholesterol-esterifying enzyme, fatty acyl CoA:cholesterol acyl transferase (ACAT). A mixture comprising 50 parts of adrenal supernatant, 10 parts of albumin (BSA) (50 mg./ml.), 3 parts of test compound (final concentration 5.2 μg./ml.) and 500 parts of buffer was preincubated at 37° C. for 10 minutes. After treatment with 20 parts of oleoyl CoA (^14 C-0.4 μCi) the mixture was incubated at 37° C. for 10 minutes. A control mixture, omitting the test compound, was prepared and treated in the same manner. The lipids from the incubation mixture were extracted into an organic solvent and separated by thin-layer chromatography. The cholesterol ester fraction was counted in a scintillation counter. […]

CCCCN(Cc1ccccc1)C(=O)Nc1ccccc1 [Example 1, 1-Benzyl-1-(n-butyl)-3-(phenyl)urea]
inhibited ACAT: 82%
